# Measured values: ChEMBL document CHEMBL3272053, “(exo, exo)-2-Aryltropane-3-carboxylic esters, hypoglycemic agents with accompanying analgesic activity” (J Med Chem, 1978)
# Key:
# Rattus norvegicus [1] = assay: Narcotic analgesic activity in po dosed fasted Sprague-Dawley rat measured at 15 mins by D'Amour-Smith tail-flick test; type: functional; settings: 0.25 h
# Rattus norvegicus [2] = assay: Narcotic analgesic activity in po dosed fasted Sprague-Dawley rat measured at 60 mins by D'Amour-Smith tail-flick test; type: functional; settings: Rattus norvegicus, Sprague-Dawley, Tail, po, 1 h; read-out: ED50
# Rattus norvegicus [3] = assay: Narcotic analgesic activity in sc dosed fed Sprague-Dawley rat measured at 30 mins by D'Amour-Smith tail-flick test; type: functional
# Mus musculus [4] = assay: Analgesic activity in sc dosed Swiss-Webster mouse assessed as reduction of acetylcholine-induced writhing; type: functional; settings: Mus musculus, Swiss-Webster, sc; read-out: ED50
# Mus musculus [5] = assay: Analgesic activity in po dosed Swiss-Webster mouse assessed as reduction of acetylcholine-induced writhing; type: functional
# [6] = Drug metabolism in glucose loaded Sprague-Dawley rat urine assessed as formation of (7)- (exo,exo)-methyl 2-(thiophen-2-yl)-8-azabicyclo[3.2.1]octane-3-carboxylate hydrochloride at 20 mg, po administered 3 to 6 hrs measured for 24 hrs by TLC/mass spectrographic analysis; type: ADME, organism-based; settings: in vivo
# Rattus norvegicus [7] = assay: Toxicity in Sprague-Dawley rat assessed as severe convulsion at 240 mg/kg, sc; type: organism-based; set-up: dose 240 mg/kg, route subcutaneous; settings: in vivo
# Mus musculus [8] = assay: Toxicity in Swiss-Webster mouse assessed as mortality at 75 mg/kg, sc; type: organism-based; set-up: dose 75 mg/kg, route subcutaneous; settings: in vivo
# Rattus norvegicus [9] = assay: Toxicity in Sprague-Dawley rat assessed as induction of physical dependence by measuring occurrence of abstinence signs administered as infusion at 0.3 log interval doses up to maximum tolerated dose 800 mg/kg/24 hrs, ip for 6 days prior to abrupt withdrawal; type: organism-based; set-up: route intraperitoneal; settings: in vivo
# Rattus norvegicus [10] = assay: Toxicity in Sprague-Dawley rat assessed as induction of physical dependence by measuring occurrence of abstinence signs at 100 mg/kg/24 hrs, ip administered as 2 days of infusion prior to naloxone-precipitated withdrawal; type: organism-based; set-up: route intraperitoneal; settings: in vivo
# Rattus norvegicus [11] = assay: Toxicity in Sprague-Dawley rat assessed as induction of morphine physical dependence by measuring occurrence of abstinence signs at 32 times of morphine dose 12.5 mg/kg/24 hrs administered on day 6 post morphine withdrawal; type: organism-based; settings: in vivo
# Rattus norvegicus [12] = assay: Toxicity in po dosed Sprague-Dawley rat assessed as catalepsy administered 15 mins prior to testing; type: organism-based; settings: in vivo, 0.25 h
# Rattus norvegicus [13] = assay: Toxicity in Sprague-Dawley rat assessed as catalepsy at 32 mg/kg, po administered 15 mins prior to testing in presence of naloxone hydrochloride; type: organism-based; set-up: dose 32 mg/kg, route oral; settings: in vivo, 0.25 h
# Rattus norvegicus [14] = assay: Toxicity in Sprague-Dawley rat assessed as catalepsy at 32 mg/kg, po administered 15 mins prior to testing; type: organism-based; set-up: dose 32 mg/kg, route oral; settings: in vivo, 0.25 h
# Rattus norvegicus [15] = assay: Toxicity in morphine-treated Sprague-Dawley rat assessed as catalepsy at 32 mg/kg, po administered 15 mins prior to testing; type: organism-based; set-up: dose 32 mg/kg, route oral; settings: in vivo, 0.25 h
# Mus musculus [16] = assay: Toxicity in po dosed Swiss-Webster mouse assessed as stimulation of straub tail after 15 to 25 mins; type: organism-based; settings: in vivo
# Mus musculus [17] = assay: Toxicity in naloxone hydrochloride-treated Swiss-Webster mouse assessed as stimulation of straub tail at 300 mg/kg, po after 15 to 25 mins; type: organism-based; set-up: dose 300 mg/kg, route oral; settings: in vivo
# Canis familiaris [18] = assay: Toxicity in dog assessed as reduction of pulmonary ventilation rate at 100 mg/kg, im measured within 20 mins relative to control; type: organism-based, Canis lupus familiaris; set-up: dose 100 mg/kg, route intramuscular; scale not given: the % may be the effect or the level left; settings: in vivo
# Canis familiaris [19] = assay: Toxicity in nalorphine-treated dog assessed as reduction of pulmonary ventilation rate at 100 mg/kg, im measured within 1 min; type: organism-based, Canis lupus familiaris; set-up: dose 100 mg/kg, route intramuscular; settings: in vivo
# Canis familiaris [20] = assay: Toxicity in dog assessed as effect on pulmonary ventilation rate at 150 mg/kg, im measured after 4 hrs; type: organism-based, Canis lupus familiaris; set-up: dose 150 mg/kg, route intramuscular; settings: in vivo
# Canis familiaris [21] = assay: Toxicity in dog assessed as reduction of pulmonary ventilation rate at 100 mg/kg, im measured within 5 mins; type: organism-based, Canis lupus familiaris; set-up: dose 100 mg/kg, route intramuscular; scale not given: the % may be the effect or the level left; settings: in vivo
# Canis familiaris [22] = assay: Toxicity in dog assessed as stopped breathing at 100 mg/kg, im measured after 3 mins; type: organism-based, Canis lupus familiaris; set-up: dose 100 mg/kg, route intramuscular; settings: in vivo, 0.05 h
# Canis familiaris [23] = assay: Toxicity in nalorphine-treated dog assessed as reduction of pulmonary ventilation rate at 100 mg/kg, im measured within 5 mins; type: organism-based, Canis lupus familiaris; set-up: dose 100 mg/kg, route intramuscular; settings: in vivo
# Canis familiaris [24] = assay: Toxicity in nalorphine-treated dog assessed as stopped breathing at 100 mg/kg, im measured after 3 mins; type: organism-based, Canis lupus familiaris; set-up: dose 100 mg/kg, route intramuscular; settings: in vivo, 0.05 h
# Canis familiaris [25] = assay: Toxicity in dog assessed as respiratory depression at 150 mg/kg, im; type: organism-based, Canis lupus familiaris; set-up: dose 150 mg/kg, route intramuscular; settings: in vivo
# Rattus norvegicus [26] = assay: Hypoglycemic activity in fasted Sprague-Dawley rat assessed as reduction of blood glucose level at 88 mg/kg, po measured at 0.5 hrs relative to control; type: functional; set-up: scale not given: the % may be the effect or the level left
# Rattus norvegicus [27] = assay: Hypoglycemic activity in fasted Sprague-Dawley rat assessed as reduction of blood glucose level at 88 mg/kg, po measured at 1 hr relative to control; type: functional; set-up: scale not given: the % may be the effect or the level left
# Rattus norvegicus [28] = assay: Hypoglycemic activity in fasted Sprague-Dawley rat assessed as reduction of blood glucose level at 88 mg/kg, po measured at 1.5 hrs relative to control; type: functional; set-up: scale not given: the % may be the effect or the level left
# Rattus norvegicus [29] = assay: Hypoglycemic activity in fasted Sprague-Dawley rat assessed as reduction of blood glucose level at 88 mg/kg, po measured at 2 hrs relative to control; type: functional; set-up: scale not given: the % may be the effect or the level left
# Rattus norvegicus [30] = assay: Hypoglycemic activity in fasted Sprague-Dawley rat assessed as reduction of blood glucose level at 50 mg/kg, po measured at 0.5 hrs relative to control; type: functional; set-up: scale not given: the % may be the effect or the level left
# Rattus norvegicus [31] = assay: Hypoglycemic activity in fasted Sprague-Dawley rat assessed as reduction of blood glucose level at 50 mg/kg, po measured at 1 hr relative to control; type: functional; set-up: scale not given: the % may be the effect or the level left
# Rattus norvegicus [32] = assay: Hypoglycemic activity in fasted Sprague-Dawley rat assessed as reduction of blood glucose level at 50 mg/kg, po measured at 1.5 hrs relative to control; type: functional; set-up: scale not given: the % may be the effect or the level left
# Rattus norvegicus [33] = assay: Hypoglycemic activity in fasted Sprague-Dawley rat assessed as reduction of blood glucose level at 50 mg/kg, po measured at 2 hrs relative to control; type: functional; set-up: scale not given: the % may be the effect or the level left
# Rattus norvegicus [34] = assay: Hypoglycemic activity in glucose loaded Sprague-Dawley rat assessed as reduction of blood glucose level at 88 mg/kg, po measured at 0.5 hrs relative to control; type: functional; set-up: scale not given: the % may be the effect or the level left
# Rattus norvegicus [35] = assay: Hypoglycemic activity in glucose loaded Sprague-Dawley rat assessed as reduction of blood glucose level at 88 mg/kg, po measured at 1 hr relative to control; type: functional; set-up: scale not given: the % may be the effect or the level left
# Rattus norvegicus [36] = assay: Hypoglycemic activity in glucose loaded Sprague-Dawley rat assessed as reduction of blood glucose level at 88 mg/kg, po measured at 1.5 hrs relative to control; type: functional; set-up: scale not given: the % may be the effect or the level left
# Rattus norvegicus [37] = assay: Hypoglycemic activity in glucose loaded Sprague-Dawley rat assessed as reduction of glucose level per 100 mL of blood at 88 mg/kg, po measured at 2 hrs (reference value: 99 +/- 2 mg/100 mL); type: functional
# Rattus norvegicus [38] = assay: Hypoglycemic activity in glucose loaded Sprague-Dawley rat assessed as reduction of glucose level per 100 mL of blood at 50 mg/kg, po measured at 0.5 hrs (reference value: 176 +/- 8 mg/100 mL); type: functional
# Rattus norvegicus [39] = assay: Hypoglycemic activity in glucose loaded Sprague-Dawley rat assessed as reduction of blood glucose level at 50 mg/kg, po measured at 1 hr relative to control; type: functional; set-up: scale not given: the % may be the effect or the level left
# Rattus norvegicus [40] = assay: Hypoglycemic activity in glucose loaded Sprague-Dawley rat assessed as reduction of blood glucose level at 50 mg/kg, po measured at 1.5 hrs relative to control; type: functional; set-up: scale not given: the % may be the effect or the level left
# Rattus norvegicus [41] = assay: Hypoglycemic activity in glucose loaded Sprague-Dawley rat assessed as reduction of blood glucose level at 50 mg/kg, po measured at 2 hrs relative to control; type: functional; set-up: scale not given: the % may be the effect or the level left
# Rattus norvegicus [42] = assay: Hypoglycemic activity in glucose/glycogen loaded Sprague-Dawley rat assessed as reduction of blood glucose level at 88 mg/kg, po measured at 0.5 hrs relative to control; type: functional; set-up: scale not given: the % may be the effect or the level left
# Rattus norvegicus [43] = assay: Hypoglycemic activity in glucose/glycogen loaded Sprague-Dawley rat assessed as reduction of blood glucose level at 88 mg/kg, po measured at 1 hr relative to control; type: functional; set-up: scale not given: the % may be the effect or the level left
# Rattus norvegicus [44] = assay: Hypoglycemic activity in glucose/glycogen loaded Sprague-Dawley rat assessed as reduction of blood glucose level at 88 mg/kg, po measured at 1.5 hrs relative to control; type: functional; set-up: scale not given: the % may be the effect or the level left
# Rattus norvegicus [45] = assay: Hypoglycemic activity in glucose/glycogen loaded Sprague-Dawley rat assessed as reduction of glucose level per 100 mL of blood at 88 mg/kg, po measured at 2 hrs (reference value: 102 +/- 7 mg/100 mL); type: functional
# Rattus norvegicus [46] = assay: Hypoglycemic activity in Sprague-Dawley rat assessed as reduction of blood glucose level at 88 mg/kg, po by glucagon-impaired glucose disposal test relative to control; type: functional; set-up: scale not given: the % may be the effect or the level left; settings: 88 mg/kg
structure (smiles),measurement,setting,value
COC(=O)[C@H]1C[C@H]2CC[C@H]([C@H]1c1cccs1)N2C.Cl (racemic),ED50,Rattus norvegicus [1],29 mg/kg
same,ED50,Rattus norvegicus [2],83 mg/kg
same,ED50,Rattus norvegicus [3],100 mg/kg
same,ED50,Mus musculus [4],12 mg/kg
same,ED50,Mus musculus [5],35 mg/kg
same,Drug metabolism,[6],metabolite_detected
same,Activity,Rattus norvegicus [7],Toxic
same,Activity,Mus musculus [8],Non-toxic
same,Activity,Rattus norvegicus [9],Non-toxic
same,Activity,Rattus norvegicus [10],Non-toxic
same,Activity,Rattus norvegicus [11],Non-toxic
same,ED50,Rattus norvegicus [12],18.6 mg/kg
same,Activity,Rattus norvegicus [13],Non-toxic
same,Activity,Rattus norvegicus [14],65%
same,Activity,Rattus norvegicus [15],20%
same,ED50,Mus musculus [16],138 mg/kg
same,Activity,Mus musculus [17],Non-toxic
same,Activity,Canis familiaris [18],40%
same,Activity,Canis familiaris [19],Non-toxic
same,Activity,Canis familiaris [20],Non-toxic
same,Activity,Canis familiaris [21],65%
same,Activity,Canis familiaris [22],Non-toxic
same,Activity,Canis familiaris [23],Non-toxic
same,Activity,Canis familiaris [24],Non-toxic
same,Activity,Canis familiaris [25],Non-toxic
same,Activity,Rattus norvegicus [26],45%
same,Activity,Rattus norvegicus [27],38%
same,Activity,Rattus norvegicus [28],27%
same,Activity,Rattus norvegicus [29],24%
same,Activity,Rattus norvegicus [30],34%
same,Activity,Rattus norvegicus [31],40%
same,Activity,Rattus norvegicus [32],43%
same,Activity,Rattus norvegicus [33],37%
same,Activity,Rattus norvegicus [34],55%
same,Activity,Rattus norvegicus [35],55%
same,Activity,Rattus norvegicus [36],32%
same,Activity,Rattus norvegicus [37],100 mg
same,Activity,Rattus norvegicus [38],172 mg
same,Activity,Rattus norvegicus [39],40%
same,Activity,Rattus norvegicus [40],53%
same,Activity,Rattus norvegicus [41],50%
same,Activity,Rattus norvegicus [42],62%
same,Activity,Rattus norvegicus [43],38%
same,Activity,Rattus norvegicus [44],22%
same,Activity,Rattus norvegicus [45],104 mg
same,Activity,Rattus norvegicus [46],63%
